Key:
[1] = Stability of ferric acetyl-hydroxamate complex in pre-hydrophilic fraction; conditions: pre-hydrophilic fraction of Table 1 (10% PVP-12 and 15% NaC8), 4 hours
[2] = one month at 25° and 40° C.
Blood hemoglobin = experiment: Repeated doses: effect on blood hemoglobin in normal SD rats; format: in vivo; conditions: ROA IJ (FAC) or PO (ferrous sulfate)
Method: Blood samples were collected pre-dosing (Day 1) and post-dosing (Day 22). Blood hemoglobin was evaluated using colorimetric assay.

CC(=O)N[O-].CC(=O)N[O-].CC(=O)N[O-].[Fe+3] [ferric acetyl-hydroxamate]
precipitation and Fe2+ formation [1]: Neither precipitation nor Fe^2+ formation was observed
stability in the pre-hydrophilic fraction [1]: stable for 4 hours

O.O=C([O-])CN(CCN(CC(=O)[O-])CC(=O)[O-])CC(=O)[O-].[Fe+3].[Na+] [ferric sodium EDTA, ethylenediaminetetraacetic acid iron(III) sodium salt hydrate]
stability in the oily suspension [2]: good stability

ferrous sulfate
Hb at Day 22 (Mean ± SE) (Blood hemoglobin; post-dosing, daily for 21 days (18 doses), 6.3 mg iron per dose): 13.9 ± 0.2 g/dL
Hb at Day 1 (Mean ± SE) (Blood hemoglobin; pre-dosing, normal SD rats): 14.2 ± 0.2 g/dL
